In publication PMC9412414, “A Study on Repositioning Nalidixic Acid via Lanthanide Complexation: Synthesis, Characterization, Cytotoxicity and DNA/Protein Binding Studies” (Pharmaceuticals, 2022):
Read-outs that look alike come from different tables or passages of the source.

Legend:
EB–DNA system (CT-DNA) = assay: Competitive binding assay with ethidium bromide (EB) through fluorescence spectroscopy; design: species or system calf; details: EB 2 µM, CT-DNA 10 µM, compound 0–40 µM
Description: The fluorescence spectra were recorded using 1.6 mL samples containing 10 µM CT-DNA, 2 µM EB, and increasing amounts (0–40 µM with an increment of 5 µM) of tested compounds; the samples were prepared by keeping the components in contact for 10 min at room temperature, under continuous stirring and in the dark. The excitation wavelength was 500 nm, and the spectra were recorded between the wavelengths of 520 and 800 nm. A Jasco FP 6500 fluorometer and quartz cells with a 1 cm route length were employed. The classical Stern–Volmer equation (Equation (3)) was used to interpret the obtained data:(3) F0/F=1+KSV·[Q] F0 and F are the fluorescence intensities of the EB–DNA samples in the absence and presence of the tested compounds, respectively; KSV is the Stern–Volmer constant, which was computed as the slope from the plot of F0/F vs. [Q], where [Q] is the chemical concentration.
The binding ratio was plotted against the logarithm of the concentration in comparison with a control sample exposed solely to DMSO. (4) y=A1+(A2−A1)×x^n/K50^n+x^n
For fitting data points, the modified Hill function with offset (Origin®) was used: where y represents the binding ratio (F/F0), x represents the concentration, A1 represents the minimum of y values, A2 represents the maximum of y values, K50 represents the concentration corresponding to 50% binding or the half maximum binding constant, and n represents the Hill coefficient.

[1] = biological target: T1, human serum albumin (HSA) (Homo sapiens, UniProt P02768); assay: HSA fluorescence quenching binding study; details: for Ka (association binding constant), HSA / n1 (Number of Binding Sites), HSA / n2 (Hill Coefficient), HSA / Kd / fa (fraction of fluorophore accessible to the quencher), HSA / Ksv* (Stern–Volmer quenching constant), HSA: HSA 2.5 µM; for Ka (association binding constant), HSA / n1 (Number of Binding Sites), HSA / n2 (Hill Coefficient), HSA / Kd / fa (fraction of fluorophore accessible to the quencher), HSA / Kq (bimolecular quenching constant), HSA: 298 K; for fa (fraction of fluorophore accessible to the quencher), HSA / Ksv* (Stern–Volmer quenching constant), HSA: compound 0–8 µM; for Ksv* (Stern–Volmer quenching constant), HSA: Tris-HCl pH 7.4, 298 K; for Kq (bimolecular quenching constant), HSA: from Ksv* with τ0 = 10^−8 s
T1 construct: purchased Sigma-Aldrich Chemical Co. (Schnelldorf, Germany)
Description: (§1) Using a Jasco FP 6500 spectrofluorometer (Jasco, Tokyo, Japan) and quartz cells with a 1 cm path length, the fluorescence spectra of HSA and apo-Tf were recorded in the presence and absence of the examined substances. The 2.5 mL samples containing 2.5 µM HSA or 1 µM apo-Tf were titrated by adding 5 µL of the tested substance at a time, a volume that corresponded to a 1 µM increase in concentration. The concentration range used for these experiments varied from 0 to 8 µM. The relevant spectra were collected in the emission domains of 300–500 nm (HSA) and 305–500 nm (apo-Tf) after 3 min of continuous stirring at room temperature, using excitation wavelengths of 280 nm (HSA) and 295 nm (apo-Tf).
(§2) Experiments were conducted in a pH = 7.4 Tris-HCl buffer (5 mM Tris-HCl/50 mM NaCl for HSA and 5 mM Tris-HCl/50 mM NaCl/25 mM NaHCO3 for apo-Tf).
(§3) The following modified Stern–Volmer equation has been used to calculate the Stern–Volmer constant, which will be denoted as KSV* in order to differentiate it from the Stern–Volmer constant calculated for the DNA binding experiments:(5) F0/F0−F=1/faKsv*[Q]+1/fa where F0 and F are the fluorescence intensities in the absence and presence of the tested compounds, fa is the fraction of fluorophore accessible to the quencher (the tested compounds), [Q] is the quencher concentration, and KSV* (M^−1) is the Stern–Volmer constant; the plot of F0/(F0 − F) against 1/[Q] yields KSV as the slope and fa as the y intercept.
(§4) Subsequently, the bimolecular quenching rate constant was obtained by using Equation (6):(6) Ksv^*=Kqτ0
(§5) Kq (M^−1·s^−1) is the bimolecular quenching rate constant and τ0 is the fluorophore’s lifespan in the absence of the investigated chemicals (10^−8 s). The value of Kq can be used to assess whether the quenching phenomena have an underlying static or dynamic mechanism.
(§6) Using the following equation, the affinity constant (Ka) and the number of binding sites (n) have been calculated: (7) lgF0−F/F=lgKa+nlg[Q]
(§7) The binding affinity, Kd, can be calculated using the quadratic function below:(8) F0−F/F0−Fb=[P]t+[Q]+Kd−([P]t+[Q]+Kd)^2−4[P]t[Q]/2[P]t where F and F0 are the fluorescence intensities of the protein in the presence and absence of the quencher, respectively, Fb is the fluorescence of a fully bound protein–quencher, [P]t is the total concentration of the protein, and [Q] is the concentration of the added quencher. Each binding isotherm was plotted against the total quencher concentration in solution as a function of bound to free protein (F/F0).
(§8) The isotherms were then fitted using the nonlinear regression function below:(9) F/F0= F1+(F2−F1)Kdn/Kdn+[Q]^n where n represents the Hill coefficient, F1 and F2 are the horizontal and vertical asymptotes, respectively. The Kd in Equation (9) is derived from the quadratic binding function (Equation (8)).
(§9) Data were collected in triplicate, averaged, and expressed as mean value ± standard deviation (SD). All graph fitting models were defined and built using OriginPro® 2018.

apotransferrin (apo-Tf) = biological target: T2, apotransferrin (apo-Tf) (Homo sapiens, UniProt P02787); assay: Apo-Tf fluorescence quenching binding study; details: for Ka (association binding constant), Apo-Tf / n1 (Number of Binding Sites), Apo-Tf / n2 (Hill Coefficient), Apo-Tf / Kd / fa (fraction of fluorophore accessible to the quencher), Apo-Tf / Ksv* (Stern–Volmer quenching constant), Apo-Tf: apo-Tf 1 µM; for Ka (association binding constant), Apo-Tf / n1 (Number of Binding Sites), Apo-Tf / n2 (Hill Coefficient), Apo-Tf / Kd / fa (fraction of fluorophore accessible to the quencher), Apo-Tf / Kq (bimolecular quenching constant), Apo-Tf: 298 K; for fa (fraction of fluorophore accessible to the quencher), Apo-Tf / Ksv* (Stern–Volmer quenching constant), Apo-Tf: compound 0–8 µM; for Ksv* (Stern–Volmer quenching constant), Apo-Tf: Tris-HCl pH 7.4, 298 K; for Kq (bimolecular quenching constant), Apo-Tf: from Ksv* with τ0 = 10^−8 s
T2 construct: purchased Sigma-Aldrich Chemical Co. (Schnelldorf, Germany)
Description: as §1, §2, §3, §4, §5, §6, §7, §8, §9

[2] = system: LoVo (human colorectal adenocarcinoma) cell line; assay: MTS cytotoxicity assay, LoVo cell line; assay type: cell-based; details: 48 h of incubation
Description: (§10) LoVo, MDA-MB-231 and HUVEC human cell lines were purchased from American Type Culture Collection (ATCC). Cells were routinely maintained in culture either in culture flasks or seeded in plates, using Dulbecco’s modified Eagle medium/nutrient mixture F-12 (DMEM:F12) medium supplemented with […], 10% fetal calf serum (Sigma Aldrich, St. Louis, MO, USA), 100 units/mL penicillin, 100 μg/mL streptomycin and incubated at 37 °C in 5% CO2 humidified atmosphere.
(§11) Cytotoxicity studies were performed in 96-well microtiter plates with flat bottoms (Falcon, Teterboro, NJ, USA) using the CellTiter 96 Aqueous One Solution Cell Proliferation Assay (Promega, Madison, WI, USA), an MTS-based colorimetric assay. Metabolically active cells have the ability to reduce MTS [3-(4,5-dimethylthiazol-2-yl)-5-(3-carboxymethoxyphenyl)-2-(4-sulfophenyl)-2H-tetrazolium, inner salt], a yellow tetrazolium salt, to a colored formazan that is soluble in the culture medium. Briefly, 15 × 10^3 cells per well were cultured in 100 µL culture medium. After 24 h, adherent cells were treated with different concentrations of the studied compounds, as well as adriamycin (Adr) and cisplatin (Cis-Pt), used as positive controls for 24 h and 48 h, respectively. Each well was then filled with 20 µL of reagent containing MTS and PES (phenazine ethosulfate, a cationic dye with excellent chemical stability that binds to MTS and produces a stable solution). The resulting formazan was determined using a Tecan GENios Spectrophotometer (Tecan US, Durham, NC, USA) by measuring the absorbance at λ = 492 nm after incubation for 4 h at 37 °C with moderate agitation every 15 min. The cytotoxicity tests were performed in triplicate, with results reported as mean values with standard deviations (SD). The cytotoxicity of DMSO was also investigated under the same conditions, and no harmful effect was found at doses less than 1%.
(§12) Data were expressed as cell viability by comparing with untreated cells considered 100% viable, using the following formula:(1) Cell viability (%)=absorbance of treated cells−absorbance of culture medium/absorbance of untreated cells−absorbance of culture medium

[3] = system: HUVEC (human umbilical vein endothelial cells); assay: MTS cytotoxicity assay, HUVEC normal cell line; assay type: cell-based; details: 24 h of incubation
Description: as §10, §11, §12

[4] = read-out: Kd (dissociation constant), HSA
[5] = read-out: Kd (dissociation constant), Apo-Tf

T2 sequence (P02787 20-698): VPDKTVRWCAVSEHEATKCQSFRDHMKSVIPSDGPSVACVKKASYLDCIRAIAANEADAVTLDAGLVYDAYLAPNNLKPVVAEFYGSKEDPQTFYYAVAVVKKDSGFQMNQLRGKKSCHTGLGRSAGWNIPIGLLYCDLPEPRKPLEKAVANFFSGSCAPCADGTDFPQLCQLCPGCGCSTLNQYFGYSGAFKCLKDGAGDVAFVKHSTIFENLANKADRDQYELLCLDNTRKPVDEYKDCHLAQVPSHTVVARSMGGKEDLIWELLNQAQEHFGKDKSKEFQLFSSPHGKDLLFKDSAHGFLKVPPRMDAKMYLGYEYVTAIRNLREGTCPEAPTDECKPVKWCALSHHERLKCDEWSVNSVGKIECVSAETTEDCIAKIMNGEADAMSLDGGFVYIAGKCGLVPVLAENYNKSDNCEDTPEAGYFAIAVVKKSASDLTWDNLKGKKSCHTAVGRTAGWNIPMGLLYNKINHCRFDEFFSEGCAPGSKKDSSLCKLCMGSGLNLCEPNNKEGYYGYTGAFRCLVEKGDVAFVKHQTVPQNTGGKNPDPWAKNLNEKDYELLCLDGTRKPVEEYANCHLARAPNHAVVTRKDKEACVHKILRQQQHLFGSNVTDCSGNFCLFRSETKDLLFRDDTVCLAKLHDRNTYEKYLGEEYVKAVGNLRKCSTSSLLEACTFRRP
T1 sequence (P02768 25-609): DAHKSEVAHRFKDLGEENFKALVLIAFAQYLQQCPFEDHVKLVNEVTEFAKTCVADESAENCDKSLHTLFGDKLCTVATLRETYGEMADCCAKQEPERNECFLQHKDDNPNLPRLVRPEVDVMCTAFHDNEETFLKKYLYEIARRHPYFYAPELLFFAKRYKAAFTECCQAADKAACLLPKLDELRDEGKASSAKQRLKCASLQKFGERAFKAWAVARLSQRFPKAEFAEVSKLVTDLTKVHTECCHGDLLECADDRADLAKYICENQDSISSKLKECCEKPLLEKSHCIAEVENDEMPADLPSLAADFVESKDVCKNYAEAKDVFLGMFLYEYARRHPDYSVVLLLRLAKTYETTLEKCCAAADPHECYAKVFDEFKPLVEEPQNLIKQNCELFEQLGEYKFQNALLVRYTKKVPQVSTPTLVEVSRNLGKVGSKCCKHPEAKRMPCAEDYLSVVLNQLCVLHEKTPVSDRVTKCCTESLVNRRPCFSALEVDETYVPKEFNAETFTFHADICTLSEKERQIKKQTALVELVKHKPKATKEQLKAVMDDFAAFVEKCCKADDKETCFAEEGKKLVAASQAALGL

Row | Compound | EB Displacement Assay K50 (half maximum binding constant) (EB–DNA system (CT-DNA)) [µM] | KSV, Stern–Volmer quenching constant (EB–DNA) (EB–DNA system (CT-DNA)) | Ka (association binding constant), HSA [1] | n1 (Number of Binding Sites), HSA [1] | n2 (Hill Coefficient), HSA [1] | Kd [1, 4] [µM] | fa (fraction of fluorophore accessible to the quencher), HSA [1] | Ksv* (Stern–Volmer quenching constant), HSA [1] | Kq (bimolecular quenching constant), HSA [1] [M⁻¹ s⁻¹] | Ka (association binding constant), Apo-Tf (apotransferrin (apo-Tf)) | n1 (Number of Binding Sites), Apo-Tf (apotransferrin (apo-Tf)) | n2 (Hill Coefficient), Apo-Tf (apotransferrin (apo-Tf)) | Kd (apotransferrin (apo-Tf); [5]) [µM] | fa (fraction of fluorophore accessible to the quencher), Apo-Tf (apotransferrin (apo-Tf)) | Ksv* (Stern–Volmer quenching constant), Apo-Tf (apotransferrin (apo-Tf)) | Kq (bimolecular quenching constant), Apo-Tf (apotransferrin (apo-Tf)) [M⁻¹ s⁻¹] | IC50 [2] [µM] | IC50 (μM) LoVo [2] | IC50 [3] [µM] | further results
1 | CCn1cc(C(=O)[O-])c(=O)c2ccc(C)nc21.CCn1cc(C(=O)[O-])c(=O)c2ccc(C)nc21.O.O.O.O.[Gd+3].[OH-] [Gd(nal)2, Gd(C12H11N2O3)2(OH)(H2O)·3H2O] | 34.11 ± 8.90 | 10.47 ± 0.13 M^−1 (×10^3) | (15.52 ± 2.93) × 10^5 M^−1 | 1.15 ± 0.01 | 1.20 ± 0.23 | 4.79 ± 0.84 | 1.25 ± 0.03 | (1.51 ± 0.07) × 10^5 M^−1 | 1.51e+13 | (3.46 ± 1.34) × 10^4 M^−1 | 0.94 ± 0.03 | 1.20 ± 0.40 | 8.87 ± 6.2 | 0.92 ± 0.07 | (0.78 ± 0.09) × 10^5 M^−1 | 7.8e+12 | > 200 | not toxic | > 200 | –
2 | Tb(C12H11N2O3)3(H2O)2·1.5H2O [Tb(nal)3] | 31.96 ± 10.16 | 8.35 ± 0.11 M^−1 (×10^3) | (31.26 ± 9.66) × 10^5 M^−1 | 1.18 ± 0.02 | 0.89 ± 0.35 | 4.61 ± 1.67 | 1.13 ± 0.02 | – | 2.39e+13 | (1.63 ± 0.42) × 10^4 M^−1 | 0.83 ± 0.02 | – | 5.76 ± 2.6 | 0.68 ± 0.01 | (2.70 ± 0.11) × 10^5 M^−1 | 2.7e+13 | 25.6 ± 6.97 | – | 96.2 ± 48.8 | –
3 | CCn1cc(C(=O)O)c(=O)c2ccc(C)nc21 [Nalidixic acid] | 50.41 ± 9.60 | 9.87 ± 0.11 M^−1 (×10^3) | – | 1.03 ± 0.01 | 1.33 ± 0.29 | 5.69 ± 1.44 | 1.06 ± 0.02 | (1.25 ± 0.06) × 10^5 M^−1 | 1.25e+13 | – | 0.79 ± 0.02 | 1.55 ± 0.37 | 6.55 ± 2.11 | 0.48 ± 0.03 | (1.02 ± 0.09) × 10^5 M^−1 | 1.02e+13 | – | not toxic | – | Kd ([1]; read-out: Ka (association binding constant), HSA): 4.57 µM; Kd (apotransferrin (apo-Tf); read-out: Ka (association binding constant), Apo-Tf): 323 µM; IC50 ([2]; Homo sapiens): > 200 µM; IC50 ([3]; Homo sapiens): > 200 µM
4 | N.N.[Cl][Pt][Cl] [Cis-Pt, cisplatin, reference compound] | – | – | – | – | – | – | – | – | – | – | – | – | – | – | – | – | 38.6 ± 4.63 | – | 78.5 ± 16 | –
